Experimental data from patent publication US7358390B2, “Polymorphic forms of nateglinide” (Teva Pharmaceutical Industries Ltd., priority 2002, dated 2008).
Entries after “also recorded” stand apart in the source; their conditions may differ. Blank lines part the entries; values can stand above or below the molecule they belong to.

How the values were obtained:
[1] = Thermal stability: transformation of crystalline forms on heating or drying, form checked by XRPD; format: physicochemical; conditions: for crystal form obtained upon drying/heating: heating under ambient or reduced pressure, generally about 40-80° C.
Method: The various crystalline forms are related to each other in that drying of one form may result in a transformation to another form, namely nateglinide Forms A, B, D, E, F, G, H, I, J, K, L, M, N, Q, S, T, V, Z, α, β, δ, γ, ε, θ and Ω. The drying is carried out by heating a sample under ambient or reduced pressure. Generally, a preferred temperature is from about 40° C. to about 80° C., more preferably under reduced pressure. […] The term “stable” as used herein refers to a polymorphic change of less than about 5% by weight, more preferably less than about 2%, particularly for Form δ.
(§1) X-Ray diffraction was performed on X-Ray powder diffractometer, Scintag®, variable goniometer, Cu-tube, solid state detector. Sample holder: A round standard aluminum sample holder with round zero background quartz plate.
(§2) The sample was put on the sample holder and immediately analyzed as is. • Scanning parameters: Range: 2-40 deg 2θ, Continuos Scan, Rate: 3 deg./min. DSC: • DSC821^e Mettler Toledo®, Sample weight: 3-5 mg, Heating rate: 10° C./min, Number of holes in the crucible: 3 TGA: • Mettler TG50®, Sample weight: 7-15 mg, Heating rate: 10° C./min FTIR: • Perkin-Elmer®, Spectrum One FTIR spectrometer, Range: 4000-400 cm−1, no. of scans: 16, resolution: 4.0 cm−1, DRIFT technique.
Nateglinide Form delta (10 grams), with about 3% heptane (wt/wt), was dried in a fluidized bed drier for 4 hours at 60° C. Residual heptane was 1578 ppm af. Ethyl acetate is under detection limit. Polymorphic form of the dry product is delta.
Sample of nateglinide form U (˜1 g) was introduced into a 6-gram vial and heated over 8.5 h in a 100° C. oil bath. The vial were extracted from the bath.
Sample of nateglinide form U (˜0.5 g) was heated to 120° C. for 1 h in an atmospheric pressure.
Sample of nateglinide form δ (˜0.5 g) was heated to 120° C. for 1 h in an atmospheric pressure.
The product of example 11 was dried at 50° C. in a vacuum oven overnight, and analyzed by XRD.
Nateglinide (40 grams) Form delta (1.5% heptane) was dried in a stirred reactor (7-10 rpm) under 60 mmHg vacuum and at 60° C. After 6 hours of drying, the residual solvent of the material was 613 ppm of heptane.

[2] = Storage of crystalline forms at room temperature, form checked by XRPD; format: physicochemical; conditions: for crystal form after storage at RT: room temperature and pressure, open bottle, 24 h (about a day)
Method: The various crystalline forms are also analyzed by Thermal Gravimetric Analysis (TGA). […] In contrast to the above listed forms, TGA profiles of forms L, P, U, α, δ and σ show no significant weight loss. These polymorphic forms of nateglinide are free of bound solvents, i.e., less than about 2% LOD. Table III lists the solvents used for the preparation for nateglinide solvated forms, as well as LOD values based on TGA analysis.
Storage at room temperature and pressure may also cause a transition of one form to another.
as §1, §2

[3] = second endotherm at 138.2° C. after grinding; cited from earlier work
[4] = Exposure of NTG Form H to solvent vapors; format: physicochemical; conditions: 4 d, room temperature
Method: Nateglinide (3.50 g) was added to a polypropylene can and weighed. The can was introduced into a bigger polypropylene container containing a solvent, and stored at room temperature. The can was removed from the container and weighed (Wfinal). The can content was divided into 2 portions. One portion was dried at a temperature of 55° C. and a pressure of 20-30 mmHg to constant weight (±0.01 g).

[5] = Stability at about 40° C. and about 75% relative humidity; format: physicochemical; conditions: about 40° C., about 75% relative humidity, at least about 3 months
Method: Crystalline Form δ is stable at a temperature of about 40° C. and a relative humidity of about 75% for at least about 3 months.

[6] = 120° C., 1 h, atmospheric pressure

Structure (SMILES): CC(C)[C@H]1CC[C@H](C(=O)N[C@H](Cc2ccccc2)C(=O)O)CC1 [Form B, nateglinide]
stability during grinding (DSC) [3]: unstable and susceptible to change

Structure (SMILES): CC(C)[C@H]1CC[C@H](C(=O)N[C@H](Cc2ccccc2)C(=O)O)CC1 [Form C, nateglinide]
crystal form obtained upon drying/heating [1]: convert to Form B; also recorded: Form B or α

Structure (SMILES): CC(C)[C@H]1CC[C@H](C(=O)N[C@H](Cc2ccccc2)C(=O)O)CC1 [Form E, nateglinide]
crystal form obtained upon drying/heating [1]: convert to Form B

Structure (SMILES): CC(C)[C@H]1CC[C@H](C(=O)N[C@H](Cc2ccccc2)C(=O)O)CC1 [Form F, nateglinide]
crystal form obtained upon drying/heating [1]: convert to Form B; also recorded: a mixture of Form B and G

Structure (SMILES): CC(C)[C@H]1CC[C@H](C(=O)N[C@H](Cc2ccccc2)C(=O)O)CC1 [Form G, nateglinide]
crystal form obtained upon drying/heating [1]: convert to Form B

Structure (SMILES): CC(C)[C@H]1CC[C@H](C(=O)N[C@H](Cc2ccccc2)C(=O)O)CC1 [Form J, nateglinide]
crystal form obtained upon drying/heating [1]: convert to Form B; also recorded: Form B or β
XRD pattern after storage at RT ([2]; RT, overnight): changed after storage at RT

Structure (SMILES): CC(C)[C@H]1CC[C@H](C(=O)N[C@H](Cc2ccccc2)C(=O)O)CC1 [Form M, nateglinide]
crystal form obtained upon drying/heating [1]: Form L

Structure (SMILES): CC(C)[C@H]1CC[C@H](C(=O)N[C@H](Cc2ccccc2)C(=O)O)CC1 [Form N, nateglinide]
crystal form obtained upon drying/heating [1]: Form L

Structure (SMILES): CC(C)[C@H]1CC[C@H](C(=O)N[C@H](Cc2ccccc2)C(=O)O)CC1 [Form T, nateglinide]
crystal form obtained upon drying/heating [1]: convert to Form B; also recorded: a mixture of Form B and G
crystal form after storage at RT [2]: converts to Form E
crystal form after storage at RT ([2]; listed as T): Form E

Structure (SMILES): CC(C)[C@H]1CC[C@H](C(=O)N[C@H](Cc2ccccc2)C(=O)O)CC1 [Form β, nateglinide]
crystal form obtained upon drying/heating [1]: convert to Form B

Structure (SMILES): CC(C)[C@H]1CC[C@H](C(=O)N[C@H](Cc2ccccc2)C(=O)O)CC1 [Form δ, nateglinide]
stability when heated ([1]; 60° C. overnight (at least about 8 hours)): stable
crystal form after heating (XRPD) [1, 6]: Form B
crystal form after heating (XRPD) ([1]; 120° C., 1 h, atmospheric pressure, listed as form δ): Form B
polymorphic form after drying ([1]; fluidized bed drier, 4 hours, 60° C.): delta
crystal form obtained upon drying/heating [1]: convert to Form B
polymorph after drying ([1]; stirred reactor (7-10 rpm), 60 mmHg vacuum, 60° C., 6 hours): remained delta form
stability on storage [5]: stable

Continued, values first:

crystal form obtained upon drying/heating [1]: convert to Form B
crystal form after storage at RT [2]: partially converts to Form B
crystal form after storage at RT ([2]; listed as A): conversion to Form B
Structure (SMILES): CC(C)[C@H]1CC[C@H](C(=O)N[C@H](Cc2ccccc2)C(=O)O)CC1 [Form A, nateglinide]

Form wet after exposure to solvent vapors ([4]; Acetone vapors): stable
Form wet after exposure to solvent vapors ([4]; Water vapors): stable
Structure (SMILES): CC(C)[C@H]1CC[C@H](C(=O)N[C@H](Cc2ccccc2)C(=O)O)CC1 [Form H, nateglinide]

crystal form after storage at RT [2]: converts to Form L
crystal form after storage at RT ([2]; listed as I): Form L
Structure (SMILES): CC(C)[C@H]1CC[C@H](C(=O)N[C@H](Cc2ccccc2)C(=O)O)CC1 [Form I, nateglinide]

crystal form obtained upon drying/heating [1]: convert to Form B
crystal form after storage at RT [2]: converts to Form Y
crystal form after storage at RT ([2]; listed as Q): Form Y, which contains
Structure (SMILES): CC(C)[C@H]1CC[C@H](C(=O)N[C@H](Cc2ccccc2)C(=O)O)CC1 [Form Q, nateglinide]

crystal form after heating (XRPD) [1, 6]: Form U
crystal form after heating (XRPD) ([1]; about 100° C. oil bath, 8.5 h): does not undergo a transition
crystal form after heating (XRPD) ([1]; about 100° C. oil bath, 8.5 h, listed as form U): Form U
Structure (SMILES): CC(C)[C@H]1CC[C@H](C(=O)N[C@H](Cc2ccccc2)C(=O)O)CC1 [Form U, nateglinide]

crystal form obtained upon drying/heating [1]: Form H
Structure (SMILES): CC(C)[C@H]1CC[C@H](C(=O)N[C@H](Cc2ccccc2)C(=O)O)CC1 [Form V, nateglinide]

crystal form obtained upon drying/heating [1]: convert to Form B
Structure (SMILES): CC(C)[C@H]1CC[C@H](C(=O)N[C@H](Cc2ccccc2)C(=O)O)CC1 [Form Z, nateglinide]

crystal form after drying (XRD) ([1]; 50° C., vacuum oven, overnight): mixture of Form omega and Form Z
crystal form obtained upon drying/heating [1]: convert to Form B
Structure (SMILES): CC(C)[C@H]1CC[C@H](C(=O)N[C@H](Cc2ccccc2)C(=O)O)CC1 [Form Ω, nateglinide]

crystal form obtained upon drying/heating [1]: Form H
Structure (SMILES): CC(C)[C@H]1CC[C@H](C(=O)N[C@H](Cc2ccccc2)C(=O)O)CC1 [Form ε, nateglinide]

crystal form obtained upon drying/heating [1]: convert to Form B
Structure (SMILES): CC(C)[C@H]1CC[C@H](C(=O)N[C@H](Cc2ccccc2)C(=O)O)CC1 [Form θ, nateglinide]

crystal form obtained upon drying/heating [1]: Form B
Structure (SMILES): CC(C)[C@H]1CC[C@H](C(=O)N[C@H](Cc2ccccc2)C(=O)O)CC1 [acetonitrile solvate of Form Epsilon, nateglinide]

crystal form obtained upon drying/heating [1]: Forms H or P
Structure (SMILES): CC(C)[C@H]1CC[C@H](C(=O)N[C@H](Cc2ccccc2)C(=O)O)CC1 [nitromethane solvates of Form Epsilon, nateglinide]
